# Data: publication PMC5617480 (Oncotarget, 2017)
# What was measured:
# [1] = Solubility in water by UV-vis spectroscopy; type: physicochemical; conditions: H2O
# Protocol: We next determined the solubility and stability of complexes 4, 5, and 6 in H2O and TBS buffer by UV-vis spectroscopy. […] TBS buffer (1% DMSO, 100 mM KCl, and 10 mM pH 7.35 Tris-HCl) was used to mimic normal physiological conditions.
# [2] = tested on: HTG21 / G4-HTG21 human telomeric DNA; test: CD spectroscopy; type: binding; parameters: key to Extent of change at 290―295 nm (%): “—”represents no obvious changes in the peaks; conditions: DNA 10 μM, compound 20 μM
# Protocol: We asked whether chiral platinum(II) complexes 4–6 have the ability to bind to G-quadruplex DNA. To address this, FRET assays, CD spectroscopy, G4-FID assays, and fluorescence titration analysis were performed. […] For G4-HTG21, the ^G4DC50 values of complexes 4–6 were 1.23, 1.26 and 0.99 μM, respectively; while, for G4-Pu27, the ^G4DC50 values were 1.01, 0.89, and 0.82 μM, respectively. In addition, the ^ctDNADC50/^G4DC50 ratio of the HTG21 and Pu27 G4s treated with complexes 4–6 was in the range of 50.54-90.65 and 71.56-110.67 folds, respectively. To further evaluate the binding ability of complexes 4–6 to Pu27 and HTG21G4s, CD spectroscopy and fluorescence titration analysis were performed. […] The quenching ability of complexes 4–6 to HTG21 and Pu27 G4 DNA fluorescence can be quantitatively estimated by their respective quenching constant (Kq), which was derived from the Stern-Volmer quenching equation. […] Finally, the selective binding of complexes 4–6 towards G4 DNA was analyzed by FRET-melting assays. […] In contrast, the ΔTm value for the F32T+H20M duplex DNA in the presence of complexes 4–6 was 1.18, 1.34, and 0.78 °C under the same conditions (Figure 4A). Altogether, our data indicated complexes 4–6, especially complex 6, is the best binder to G4 DNA, which caused DNA complex displaying the highest thermodynamic stability. […]
# Supplementary Figure 21: CD spectra of Human Telomeric DNA (10 μM) in the absence of K+ (10 mM pH 7.35 Tris-
# HCl) upon addition of compounds (20 μM). […]
# Supplementary Figure 22: CD spectra of Human Telomeric G-quadruplex DNA (10 μM) in the presence of K + (TBS
# buffer, containing 1% DMSO, 100 mM KCl, and 10 mM pH 7.35 Tris-HCl) upon addition of compounds (20 μM). […]
# ds26 = test: FID assay; type: binding; conditions: for ds26DC50: FID; for ctDNADC50/ds26DC50: FID selectivity ratio
# [3] = tested on: Pu27 (DNA, G4) TGGGGAGGGTGGGGAGGGTGGGGAAGG; test: fluorescent intercalator displacement (FID); conditions: thiazole orange displaced
# MGC80-3 cells = tested on: MGC80-3 cells; parameters: method as in earlier work; conditions: MGC80-3, 48 h; ref [1]; cited from earlier work
# BEL-7404 cells = tested on: BEL-7404 cells; parameters: method as in earlier work; conditions: BEL-7404, 48 h; ref [1]; cited from earlier work
# Hep-G2 cells = tested on: Hep-G2 cells; parameters: method as in earlier work; conditions: Hep-G2, 48 h; ref [1]; cited from earlier work
# Pu22 = tested on: Pu22; parameters: method as in earlier work; conditions: ref [1], cited from earlier work; for ctDNADC50/Pu22DC50: FID selectivity ratio; for Pu22DC50: FID
# [4] = tested on: HTG21 (human telomeric) G4; parameters: method as in earlier work; conditions: ref [1], cited from earlier work; for ctDNADC50/HTG21DC50: FID selectivity ratio; for HTG21DC50: FID
# Pu27 (c-myc) G4 = tested on: Pu27 (c-myc) G4; parameters: method as in earlier work; conditions: ref [1], cited from earlier work; for ctDNADC50/Pu27DC50: FID selectivity ratio; for Pu27DC50: FID
# [5] = G4-HTG21 (presence of K+), given with ↓
# [6] = HTG21 (absence of K+), given with ↓
G4DC50 [3] [µM],Molecule,solubility in water [1] [µg/mL],"Extent of change at 250―265 nm (%) [2, 5] [%]","Extent of change at 290―295 nm (%) [2, 5] [%]",Extent of change at 290―295 nm (%) ([2]; HTG21 (absence of K+)),"Extent of change at 250―265 nm (%) [2, 6] [%]",ds26DC50 (ds26) [µM],ctDNADC50/ds26DC50 (ds26),IC50 (MGC80-3 cells) [µM],IC50 (BEL-7404 cells) [µM],IC50 (Hep-G2 cells) [µM],ctDNADC50/Pu22DC50 (Pu22),Pu22DC50 (Pu22) [µM],ctDNADC50/HTG21DC50 [4],HTG21DC50 [4] [µM],ctDNADC50/Pu27DC50 (Pu27 (c-myc) G4),Pu27DC50 (Pu27 (c-myc) G4) [µM]
,cis-[PtCl2(S-(–)-FOA)] [complex 6],2000,56.31,19.43,—,73.98,1.39,65.27,,,,,,,,,
0.82,"O=C(NC[C@H](O)CO)c1cnc2c3c(cccc13)-c1ccccc1C2=O.[Cl-].[Cl-].[Pt+2] [ligand 3, S-(–)-FOA]",,,,,,,,35.7 ± 2.9,15.4 ± 0.2,24.9 ± 0.4,3.49,25.75,48.55,1.85,62.81,1.43
,cis-[PtCl2(R-(+)-FOA)] [complex 5],1000,52.31,9.76,—,62.38,2.23,28.56,,,,,,,,,
0.89,"O=C(NC[C@@H](O)CO)c1cnc2c3c(cccc13)-c1ccccc1C2=O.[Cl-].[Cl-].[Pt+2] [ligand 2, R-(+)-FOA]",,,,,,,,45.8 ± 2.8,20.5 ± 0.1,38.9 ± 1.3,0.69,57.62,17.78,2.25,22.59,1.77
,cis-[PtCl2(R/S-(±)-FOA)] [complex 4],680,50.08,16.44,—,73.35,1.65,45.98,,,,,,,,,
1.01,"O=C(NCC(O)CO)c1cnc2c3c(cccc13)-c1ccccc1C2=O.[Cl-].[Cl-].[Pt+2] (racemic) [ligand 1, R/S-(±)-FOA]",,,,,,,,32.4 ± 0.8,17.2 ± 0.1,32.9 ± 0.5,1.88,33.97,25.79,2.48,39.24,1.63
